The source of these data is a melting point compilation (Tetko et al.; mined from patent text by program, amines drawn as free bases though some values may be those of a salt).

Structures are written as SMILES.

For orientation: melting point means the temperature of the solid-liquid transition.

`CN1C(=O)CNC(c2cccc(Cl)c2)c2cc(C(=O)c3ccc(Cl)cc3)ccc21` (stereo not drawn) had a melting point of 177 °C.

Consider `CCCCCCCCNC(=O)N1CCC(S(=O)(=O)c2ccc(CCNC[C@H](O)COc3ccc4c(c3)OCO4)cc2)CC1`, for which the melting point was 84 to 86 °C.

With `CCC1(CCCCN2CCN(c3cccc4c3OCCO4)CC2)C(=O)Nc2cc(F)ccc21` (stereo not drawn), the melting point lay within 146 to 147 °C.

Turning to `CS(=O)(=O)N(CCCl)N(C(=O)NCCCCl)S(C)(=O)=O`, the melting point lay in the range of 85 to 86 °C.

As for `CNC(=O)c1cc(Br)cc(I)c1`, the melting point amounted to 205 °C.

In turn, `Cc1ccc(S(=O)(=O)NCCCN(C)S(=O)(=O)c2ccc(C)cc2)cc1` registered a melting point of 93 °C.

Compound `COCC(COC)N1CCc2cc(Nc3ncc(Cl)c(Nc4ccc(C(N)=O)cc4OC)n3)c(OC)cc2CC1` registered a melting point of 220 to 223 °C.

Regarding `CC(=O)C(=Cc1ccc(S(C)(=O)=O)c(Br)c1)C(C)=O`, the melting point lay within 135 to 139 °C.

For the compound `COc1ccc2c(c1)c(OC(C)C)c(C(=O)O)n2-c1ccccc1`, the melting point is 110 °C.

In turn, `O=C1c2ccccc2C(=O)N1c1ncnc2[nH]ccc12` registered a melting point of 276 to 277 °C.

`N=C(NO)c1ccc(-c2ccc(-c3ccc(C(=N)NO)o3)o2)nc1` displayed a melting point of 248 to 250 °C.

`COC(=S)N=C(N)SC` returned a melting point of 75 to 76 °C.

`Nc1cc(Cl)c(Br)c(Cl)c1` had a melting point of 132 °C.

As for `Cc1ccc(C2COc3c(C)c(C)c(N)c(C)c32)nc1` (stereo not drawn), the melting point lay in the range of 125 to 127 °C.

As to `Cc1cc(C#N)cn2cc(-c3ccc(-c4ccc(C#N)cc4)o3)nc12`, the melting point was in the range of 276 to 277 °C.

The compound `O=C(O)CCCc1cc2cc(Cl)ccc2n1S(=O)(=O)c1ccc2nsnc2c1` gave a melting point of 172 to 175 °C.

`CCn1nc2c(N)nc3c(c2c1CC(C)(C)O)CCCC3` came in with a melting point of 202 to 204 °C.

For `COc1cc2ccccc2cc1C(=O)NNC(=O)c1ccc2ccccc2c1`, the melting point was in the range of 194 to 196 °C.

As for `O=c1c2c(nc3ccc(Cl)cn13)CCC2`, the melting point was 146 to 147 °C.

`C#CC(Cn1ncnn1)n1nnc2cc3c(=O)n(C4CC4)nnc3cc2c1=O` (stereo not drawn) registered a melting point of 224 to 225 °C.

Compound `Cc1c(C)c2ccc(CCCCCN3CCN(c4cccc(Cl)c4Cl)CC3)nc2[nH]c1=O` yielded a melting point of 202 to 203 °C.

In turn, `CC(=CC#N)CN1C(=O)c2ccccc2S1(=O)=O` came in with a melting point of 119 to 121 °C.

As to `OC1CC2(CCNC2)c2ccccc21` (stereo not drawn), the melting point was 155 to 158 °C.

As for `CN1C(=O)C(c2ccc(OC(F)F)cc2)(c2cccc(COCCF)c2)N=C1N` (stereo not drawn), the melting point lay in the range of 40 to 43 °C.

The compound `CS(=O)(=O)c1ccc(-n2nc(C(F)(F)F)cc2-c2nc3ccc(F)cc3o2)cc1` gave a melting point of 216 to 218 °C.

`COc1ccc2c(c1)c(OC(C)C)c(C(=O)O)n2C`: the melting point lay within 110 to 112 °C.

As for `Cc1ccc2ccccc2c1N(C(=O)CCl)C1COC(=O)C1` (stereo not drawn), the melting point is 121 to 122 °C.

For the compound `CC(C)C[C@H](NC(=O)C1CCCCC1)C(=O)N[C@@H](C(C)C)[C@@H](O)c1c(-c2ccccc2)c1=O`, the melting point lay within 116 to 120 °C.

`CC(C)(C)OC(=O)Nc1ccc(C#Cc2ccc(F)cc2)cc1NC(=O)CC(=O)c1ccnc(-n2ccnc2)c1` came in with a melting point of 169 °C.

For the compound `COC(=O)Nc1ccc(OCc2nc3ccc(OC)cc3s2)cc1C`, the melting point lay within 123 to 125 °C.

As for `CC(=O)OC1CSC(Oc2cncc(-c3ccsc3)c2)C(OC(C)=O)C1OC(C)=O` (stereo not drawn), the melting point was determined as 175 °C.

On to `COc1ccc(C(=O)Nc2cc(NC(=O)c3cccc(O)c3)ccc2C)cc1OC`, for which the melting point was in the range of 182 to 183 °C.

Compound `CCCCCC(=O)OCc1nccc(O)n1` showed a melting point of 78 °C.

On to `C=CCN(CC=C)Cc1csc(-c2ncn3c2CN(C)C(=O)c2cc(F)ccc2-3)n1`, for which the melting point lay in the range of 125 to 127 °C.

In the case of `CSc1nccc(CC(=O)c2ccc(F)cc2)n1`, the melting point lay within 212 to 214 °C.

Compound `O=C(O)COc1ccc(SCc2ccc(OCc3ccc(Cl)c(C(F)(F)F)c3)cc2)c2c1CCC2` came in with a melting point of 151 to 152 °C.

Take `CC1(C)NC(=O)CN1C(=O)CBr`: the melting point lay within 137 to 138 °C.

For the compound `CCOC(=O)c1cnc2c(c(C)nc3cc(C)nn32)c1N1CCCCC1`, the melting point fell in the range of 161 to 163 °C.

In turn, `CC(c1cc2ccccc2s1)N(O)C=O` (stereo not drawn) gave a melting point of 115 to 116 °C.

Turning to `CNc1cc(CC(C#N)=CNc2ccccc2)cc(NC)c1Cl`, the melting point lay in the range of 142 to 147 °C.

`CCCc1c(-c2ccncc2)[nH]c(-c2ccncc2)c1C(C)=O` displayed a melting point of 111 to 113 °C.

The compound `CCCc1c(OCCCS(=O)(=O)c2ccc(C(=O)NCC(=O)O)cc2)ccc(C(C)=O)c1O` yielded a melting point of 171 to 173 °C.

`CCOc1cccc(CC(=O)O)c1OCCn1cc(C(=O)NCc2ccc(Cl)cc2Cl)c(OCC)n1`: the melting point lay within 145 to 146 °C.

In the case of `CCNS(=O)(=O)c1cccc(NC(=O)c2cnn3c(C(F)(F)F)cc(-c4ccc(C(F)(F)F)c(OCC)c4)nc23)c1`, the melting point came to 226 °C.

`COc1ccc(F)cc1C(C)(C)CC(O)(C(=O)O)C(F)(F)F` (stereo not drawn) had a melting point of 102 to 104 °C.

The compound `CCOC(=O)C=CC=Cc1cccc2cncn12` gave a melting point of 101 to 103 °C.

`CC(c1ccc(F)c(Br)c1)N(O)C(N)=O` (stereo not drawn) yielded a melting point of 125 °C.

In the case of `CCc1nc2cc(Cl)c(F)cc2c(=O)n1CCc1ccccc1`, the melting point was in the range of 150 to 152 °C.

`COc1cc(N)c(Cl)cc1C(=O)NCC1CCN(CCCCCOc2ccc(F)cc2)CC1`: the melting point fell in the range of 105 to 107 °C.

For `O=C(CCCCCNC1(c2ccccc2Cl)C(=O)Nc2ccc(Cl)cc21)OCc1ccccc1` (stereo not drawn), the melting point fell in the range of 98 to 99 °C.

As to `O=C(O)CC(CC(=O)O)c1ccc(O)cc1`, the melting point lay within 168 to 170 °C.

For the compound `Cc1noc(NS(=O)(=O)c2ccccc2-c2ccc(-c3ncco3)cc2CNC=O)c1C`, the melting point fell in the range of 105 to 109 °C.

As to `CC(C)N(C(=S)Nc1ccc(NC(=S)N(C(C)C)C(C)C)cc1)C(C)C`, the melting point came out at 185 °C.

In turn, `O=C(O)c1ccc(-c2ccc3cc(CCO)c(C45CC6CC(CC(C6)C4)C5)cc3c2)cc1` gave a melting point of 276 to 278 °C.

For the compound `COC(=O)c1ccc(NC(=O)c2ccccc2-c2ccccc2)c(OC)c1`, the melting point was in the range of 115 to 117 °C.

`CCOC(=O)CC(=O)c1ccc([N+](=O)[O-])c(OC)c1` had a melting point of 94 to 95 °C.

Compound `O=C(N[C@H](c1ccccc1)[C@@H](O)CO)c1cc2ccccc2[nH]1` (racemic) had a melting point of 151 °C.

`Oc1ccc2c(c1)COc1c-2cc2ccc(O)cc2c1-c1cccc(Cl)c1` displayed a melting point of 243 to 246 °C.

Turning to `CC(C)n1nc(-c2nc(N)cnc2-c2ccccc2)ccc1=O`, the melting point lay in the range of 214 to 217 °C.

On to `Cc1ccc2c(c1Cl)S(=O)(=O)N=CN2C1CC1`, for which the melting point is 218 to 223 °C.

For the compound `O=C(/C=C/c1ccccc1[N+](=O)[O-])N1CCN(C(=O)c2cc(C(F)(F)F)cc(C(F)(F)F)c2)[C@H](Cc2c[nH]c3ccccc23)C1`, the melting point fell in the range of 125 to 133 °C.

`N#Cc1ccc2c(c1)-c1ccccc1OP2(=O)O`: the melting point was determined as 240 °C.

The compound `COc1ccc2nc(-n3ccnc3)nc(NCCS(C)=O)c2c1` (stereo not drawn) returned a melting point of 238 to 242 °C.

On to `CCn1ncc(C(=O)c2ccc(S(C)(=O)=O)c(Cl)c2Cl)c1O`, for which the melting point was 198 to 200 °C.

The compound `CS(=O)(=O)c1ccc(-c2cnn(CC(=O)c3ccc(F)cc3F)c(=O)c2-c2ccc(F)cc2)cc1` came in with a melting point of 191 to 192 °C.

Consider `Cc1ccc(S(=O)(=O)OCCNC(=O)OC(C)(C)C)cc1`, for which the melting point lay within 64 to 66 °C.

As for `Fc1cc(I)ccc1Nc1c(-c2nnc(NCCN3CCOCC3)o2)ccc(F)c1F`, the melting point was 77 to 80 °C.

Compound `O=C(C1Oc2ccccc2OC1c1ccccc1)N1CCOCC1` (stereo not drawn) gave a melting point of 148 to 150 °C.

Regarding `CCCC(C=NNC(=O)OC)c1ccc(Cl)cc1Cl` (stereo not drawn), the melting point lay in the range of 165 to 166 °C.

Regarding `O=C(O)c1ccc(NC(=O)c2ccccc2-c2ccccc2)nc1`, the melting point lay in the range of 215 to 217 °C.

`CC(=O)n1c(CCc2ccccc2)cc2c(I)ccnc21` registered a melting point of 109 to 110 °C.

`CCC1c2ccccc2-c2ccccc21` yielded a melting point of 152 to 154 °C.

`COCOCc1cc(-c2ccc(C(=O)O)cc2)cc(-c2ccc3c(c2)C(C)(C)CCC3(C)C)c1` had a melting point of 88 °C.

With `O=C1NC(=O)C(c2cc(F)cc(F)c2)(c2cc(F)cc(F)c2)N1`, the melting point was in the range of 271 to 274 °C.

For `Cc1oc(-c2ccccc2)nc1COc1ccc(Cn2cc(CCC(=O)O)c(C(C)C)n2)cc1`, the melting point lay within 97 to 98 °C.

`O=C(CCCCC(=O)NC1CCc2ccccc21)NC1CCc2ccccc21` (stereo not drawn) gave a melting point of 227 °C.

In the case of `CN(Cc1ccc(C(=O)O)cc1)c1ccc2c(c1)C(C)(C)CCC2(C)C`, the melting point fell in the range of 141 to 144 °C.

Consider `OC1(c2cccnc2N2CCCC2)CCN(CC23CC(c4ccccc42)c2ccccc23)CC1`, for which the melting point was 249 to 253 °C.

Compound `CS(=O)c1cccc(NC(=O)NCC(=O)N(CC(=O)N2CCCc3ccccc32)c2ccccc2)c1` (racemic) showed a melting point of 140 °C.

Consider `O=C(O)CCSc1cccc(Br)c1`, for which the melting point was 87 to 88 °C.

Compound `C[C@H]1CCCC(C)(C)[C@@H]1[C@H](O)c1ccc(F)c(F)c1` displayed a melting point of 43.3 to 45.8 °C.

Compound `CC1(C)CC(=O)c2cccc(C(=O)O)c2C1` registered a melting point of 167 to 168 °C.

`CC(=CC(=O)c1cccnc1)N(C)C` showed a melting point of 62 to 64 °C.

Compound `BrCc1noc2cc3c(cc12)CCC3` showed a melting point of 69 to 71 °C.

Take `COc1ccccc1-c1ccc(S(N)(=O)=O)c(N)c1`: the melting point lay in the range of 219 to 221 °C.

With `Oc1ccc(C(=C2CCNCC2)c2ccccc2)cc1`, the melting point is more than 260 °C.

On to `COc1cc2c3ccc(OC)c(OC)c3n(Cc3ccccc3)c2cc1OC`, for which the melting point was in the range of 174 to 175 °C.

`Clc1ccc(-c2ncc3nc(Cl)cc(Cl)n23)cc1`: the melting point was 203 to 205 °C.
